ChEMBL document CHEMBL4828722, “The synthesis and bioactivity of pyrrolo[2,3-d]pyrimidine derivatives as tyrosine kinase inhibitors for NSCLC cells with EGFR mutations” (Eur J Med Chem, 2021)

Legend:
[1] = Cytotoxicity against human HBE cells assessed as reduction in cell viability measured after 48 hrs by CCK8 assay; assay type: cell-based
BEAS-2B = assay: Cytotoxicity against human BEAS-2B cells assessed as reduction in cell viability measured after 48 hrs by CCK8 assay; assay type: cell-based
NCI-H460 = assay: Cytotoxicity against human NCI-H460 cells harboring wild type EGFR assessed as reduction in cell viability measured after 48 hrs by CCK8 assay; assay type: functional, cell-based; conditions: NCI-H460, 48 h
A549 = assay: Cytotoxicity against human A549 cells harboring wild type EGFR assessed as reduction in cell viability measured after 48 hrs by CCK8 assay; assay type: functional, cell-based; conditions: A549, 48 h
NCI-H1975 = assay: Cytotoxicity against human NCI-H1975 cells harboring EGFR L858R/T790M mutant assessed as reduction in cell viability measured after 48 hrs by CCK8 assay; assay type: functional, cell-based; conditions: NCI-H1975, 48 h
HCC827 = assay: Cytotoxicity against human HCC827 cells harboring EGFR del E746-A750 mutant assessed as reduction in cell viability measured after 48 hrs by CCK8 assay; assay type: functional, cell-based; conditions: HCC827, 48 h
[2] = target: Epidermal growth factor receptor (Homo sapiens, UniProt P00533); assay: Inhibition of wild type EGFR (unknown origin) at 80 nM pretreated with substrate for 10 mins followed by ATP addition measured after 60 mins by mobility shift assay relative to control
[3] = test system: Epidermal growth factor receptor (Homo sapiens), P00533 [L858R,T790M]; assay: Inhibition of […] EGFR L858R/T790M mutant (unknown origin) at 2 nM pretreated with substrate for 10 mins followed by ATP addition measured after 60 mins by mobility shift assay relative to control
[4] = test system: Epidermal growth factor receptor (Homo sapiens), P00533 [UNDEFINED MUTATION]; assay: Inhibition of […] EGFR Del E746/A750 mutant (unknown origin) at 2 nM pretreated with substrate for 10 mins followed by ATP addition measured after 60 mins by mobility shift assay relative to control
[5] = test system: Epidermal growth factor receptor (Homo sapiens), P00533 [L858R]; assay: Inhibition of […] EGFR L858R mutant (unknown origin) at 2 nM pretreated with substrate for 10 mins followed by ATP addition measured after 60 mins by mobility shift assay relative to control
[6] = test system: Epidermal growth factor receptor (Homo sapiens), P00533 [T790M]; assay: Inhibition of […] EGFR T790M mutant (unknown origin) at 2 nM pretreated with substrate for 10 mins followed by ATP addition measured after 60 mins by mobility shift assay relative to control
[7] = test system: Epidermal growth factor receptor (Homo sapiens), P00533 [C797S]; assay: Inhibition of […] EGFR C797S mutant (unknown origin) at 2 nM pretreated with substrate for 10 mins followed by ATP addition measured after 60 mins by mobility shift assay relative to control
[8] = test system: Epidermal growth factor receptor (Homo sapiens), P00533 [L858R,T790M,C797S]; assay: Inhibition of […] EGFR L858R/T790M/C797S mutant (unknown origin) at 2 nM pretreated with substrate for 10 mins followed by ATP addition measured after 60 mins by mobility shift assay relative to control
Chain of Epidermal growth factor receptor (Homo sapiens), P00533 [L858R,T790M,C797S] (P00533 whole entry T790M/C797S/L858R): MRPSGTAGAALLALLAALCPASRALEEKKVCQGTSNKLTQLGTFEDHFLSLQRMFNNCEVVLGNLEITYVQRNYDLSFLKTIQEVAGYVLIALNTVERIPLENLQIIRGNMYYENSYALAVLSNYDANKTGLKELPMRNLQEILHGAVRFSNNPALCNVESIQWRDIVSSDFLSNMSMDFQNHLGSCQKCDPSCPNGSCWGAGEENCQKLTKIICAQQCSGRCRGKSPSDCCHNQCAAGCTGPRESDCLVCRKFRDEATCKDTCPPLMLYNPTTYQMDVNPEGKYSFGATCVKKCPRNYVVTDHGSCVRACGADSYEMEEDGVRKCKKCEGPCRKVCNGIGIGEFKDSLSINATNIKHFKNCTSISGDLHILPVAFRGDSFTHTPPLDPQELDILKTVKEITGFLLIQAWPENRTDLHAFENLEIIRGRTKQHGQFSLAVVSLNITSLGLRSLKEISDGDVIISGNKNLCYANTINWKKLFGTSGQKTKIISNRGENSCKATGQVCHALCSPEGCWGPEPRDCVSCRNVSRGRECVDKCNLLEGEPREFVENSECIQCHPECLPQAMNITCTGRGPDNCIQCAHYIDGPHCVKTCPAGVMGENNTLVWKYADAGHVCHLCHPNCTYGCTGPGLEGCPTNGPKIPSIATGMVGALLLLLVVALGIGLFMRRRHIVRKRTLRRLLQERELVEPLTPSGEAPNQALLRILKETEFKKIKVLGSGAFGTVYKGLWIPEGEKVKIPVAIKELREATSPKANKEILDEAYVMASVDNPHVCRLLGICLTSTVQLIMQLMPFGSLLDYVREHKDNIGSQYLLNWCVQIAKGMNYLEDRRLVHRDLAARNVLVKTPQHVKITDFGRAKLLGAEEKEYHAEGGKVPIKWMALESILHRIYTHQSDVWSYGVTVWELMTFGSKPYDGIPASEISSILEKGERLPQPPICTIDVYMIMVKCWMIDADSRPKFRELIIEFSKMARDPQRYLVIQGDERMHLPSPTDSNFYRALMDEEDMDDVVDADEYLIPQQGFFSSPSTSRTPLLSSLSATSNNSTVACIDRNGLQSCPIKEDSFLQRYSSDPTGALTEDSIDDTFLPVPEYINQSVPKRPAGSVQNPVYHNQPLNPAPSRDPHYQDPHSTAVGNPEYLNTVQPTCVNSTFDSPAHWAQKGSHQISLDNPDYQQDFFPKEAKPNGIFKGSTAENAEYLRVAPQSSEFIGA

Chain of Epidermal growth factor receptor (Homo sapiens), P00533 [L858R,T790M] (P00533 whole entry T790M/L858R, looked up): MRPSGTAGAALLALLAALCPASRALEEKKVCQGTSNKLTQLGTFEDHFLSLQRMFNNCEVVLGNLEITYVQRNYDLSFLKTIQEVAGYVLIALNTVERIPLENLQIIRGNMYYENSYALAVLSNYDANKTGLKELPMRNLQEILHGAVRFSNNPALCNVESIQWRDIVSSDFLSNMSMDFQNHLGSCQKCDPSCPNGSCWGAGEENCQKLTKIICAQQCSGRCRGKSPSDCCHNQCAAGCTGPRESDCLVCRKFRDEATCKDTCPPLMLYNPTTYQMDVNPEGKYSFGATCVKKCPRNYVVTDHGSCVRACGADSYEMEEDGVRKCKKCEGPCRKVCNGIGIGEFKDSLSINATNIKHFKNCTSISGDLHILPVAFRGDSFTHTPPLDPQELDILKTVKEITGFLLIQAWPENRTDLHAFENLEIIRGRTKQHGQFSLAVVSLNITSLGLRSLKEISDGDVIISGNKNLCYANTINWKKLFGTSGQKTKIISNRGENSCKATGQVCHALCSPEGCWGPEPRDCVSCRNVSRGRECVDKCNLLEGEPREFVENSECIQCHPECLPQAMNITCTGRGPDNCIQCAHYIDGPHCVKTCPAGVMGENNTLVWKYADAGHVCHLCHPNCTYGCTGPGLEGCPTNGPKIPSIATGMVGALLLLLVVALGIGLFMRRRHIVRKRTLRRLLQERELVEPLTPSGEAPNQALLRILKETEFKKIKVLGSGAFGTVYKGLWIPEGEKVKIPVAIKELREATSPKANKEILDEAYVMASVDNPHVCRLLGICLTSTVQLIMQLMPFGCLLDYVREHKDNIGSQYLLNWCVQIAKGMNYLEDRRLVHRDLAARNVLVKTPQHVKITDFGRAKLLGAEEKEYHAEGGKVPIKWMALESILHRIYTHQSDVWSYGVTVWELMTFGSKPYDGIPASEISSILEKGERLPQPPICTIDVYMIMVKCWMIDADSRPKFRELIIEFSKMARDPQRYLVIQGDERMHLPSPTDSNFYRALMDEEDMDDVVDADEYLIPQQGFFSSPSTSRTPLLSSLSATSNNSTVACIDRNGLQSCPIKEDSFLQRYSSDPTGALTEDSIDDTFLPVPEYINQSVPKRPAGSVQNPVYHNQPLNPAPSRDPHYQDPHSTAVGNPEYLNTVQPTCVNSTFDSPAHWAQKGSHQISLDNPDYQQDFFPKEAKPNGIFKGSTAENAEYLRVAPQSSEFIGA
Chain of Epidermal growth factor receptor (Homo sapiens), P00533 [L858R] (P00533 whole entry L858R): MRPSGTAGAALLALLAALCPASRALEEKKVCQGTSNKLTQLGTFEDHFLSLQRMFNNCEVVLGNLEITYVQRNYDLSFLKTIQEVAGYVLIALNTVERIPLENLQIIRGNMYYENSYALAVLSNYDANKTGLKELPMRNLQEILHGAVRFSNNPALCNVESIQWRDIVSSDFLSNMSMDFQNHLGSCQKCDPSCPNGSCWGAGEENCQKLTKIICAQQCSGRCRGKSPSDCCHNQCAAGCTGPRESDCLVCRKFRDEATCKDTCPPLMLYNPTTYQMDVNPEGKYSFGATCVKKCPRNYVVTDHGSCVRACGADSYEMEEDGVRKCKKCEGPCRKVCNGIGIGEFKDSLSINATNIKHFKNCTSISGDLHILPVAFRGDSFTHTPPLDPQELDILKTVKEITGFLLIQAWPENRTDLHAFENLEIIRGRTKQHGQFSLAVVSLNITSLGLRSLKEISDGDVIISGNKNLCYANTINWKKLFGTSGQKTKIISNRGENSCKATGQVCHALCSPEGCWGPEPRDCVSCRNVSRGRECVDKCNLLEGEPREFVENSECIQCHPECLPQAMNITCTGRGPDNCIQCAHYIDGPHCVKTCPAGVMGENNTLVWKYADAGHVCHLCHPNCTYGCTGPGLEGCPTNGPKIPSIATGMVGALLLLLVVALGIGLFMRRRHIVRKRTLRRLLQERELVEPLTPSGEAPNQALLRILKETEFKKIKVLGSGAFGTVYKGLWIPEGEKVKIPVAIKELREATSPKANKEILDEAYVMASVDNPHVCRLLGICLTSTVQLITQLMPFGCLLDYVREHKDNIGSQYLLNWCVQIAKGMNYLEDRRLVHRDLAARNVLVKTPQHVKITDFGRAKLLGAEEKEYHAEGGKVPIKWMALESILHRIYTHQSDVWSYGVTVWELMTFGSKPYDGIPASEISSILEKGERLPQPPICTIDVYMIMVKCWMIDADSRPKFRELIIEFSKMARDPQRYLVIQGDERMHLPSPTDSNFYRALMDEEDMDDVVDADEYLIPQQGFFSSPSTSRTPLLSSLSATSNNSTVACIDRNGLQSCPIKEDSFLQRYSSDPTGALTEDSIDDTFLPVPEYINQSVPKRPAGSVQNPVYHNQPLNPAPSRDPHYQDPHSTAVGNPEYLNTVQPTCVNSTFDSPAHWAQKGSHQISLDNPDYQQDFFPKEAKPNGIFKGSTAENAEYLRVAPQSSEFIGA
Chain of Epidermal growth factor receptor (Homo sapiens), P00533 [C797S] (P00533 whole entry C797S): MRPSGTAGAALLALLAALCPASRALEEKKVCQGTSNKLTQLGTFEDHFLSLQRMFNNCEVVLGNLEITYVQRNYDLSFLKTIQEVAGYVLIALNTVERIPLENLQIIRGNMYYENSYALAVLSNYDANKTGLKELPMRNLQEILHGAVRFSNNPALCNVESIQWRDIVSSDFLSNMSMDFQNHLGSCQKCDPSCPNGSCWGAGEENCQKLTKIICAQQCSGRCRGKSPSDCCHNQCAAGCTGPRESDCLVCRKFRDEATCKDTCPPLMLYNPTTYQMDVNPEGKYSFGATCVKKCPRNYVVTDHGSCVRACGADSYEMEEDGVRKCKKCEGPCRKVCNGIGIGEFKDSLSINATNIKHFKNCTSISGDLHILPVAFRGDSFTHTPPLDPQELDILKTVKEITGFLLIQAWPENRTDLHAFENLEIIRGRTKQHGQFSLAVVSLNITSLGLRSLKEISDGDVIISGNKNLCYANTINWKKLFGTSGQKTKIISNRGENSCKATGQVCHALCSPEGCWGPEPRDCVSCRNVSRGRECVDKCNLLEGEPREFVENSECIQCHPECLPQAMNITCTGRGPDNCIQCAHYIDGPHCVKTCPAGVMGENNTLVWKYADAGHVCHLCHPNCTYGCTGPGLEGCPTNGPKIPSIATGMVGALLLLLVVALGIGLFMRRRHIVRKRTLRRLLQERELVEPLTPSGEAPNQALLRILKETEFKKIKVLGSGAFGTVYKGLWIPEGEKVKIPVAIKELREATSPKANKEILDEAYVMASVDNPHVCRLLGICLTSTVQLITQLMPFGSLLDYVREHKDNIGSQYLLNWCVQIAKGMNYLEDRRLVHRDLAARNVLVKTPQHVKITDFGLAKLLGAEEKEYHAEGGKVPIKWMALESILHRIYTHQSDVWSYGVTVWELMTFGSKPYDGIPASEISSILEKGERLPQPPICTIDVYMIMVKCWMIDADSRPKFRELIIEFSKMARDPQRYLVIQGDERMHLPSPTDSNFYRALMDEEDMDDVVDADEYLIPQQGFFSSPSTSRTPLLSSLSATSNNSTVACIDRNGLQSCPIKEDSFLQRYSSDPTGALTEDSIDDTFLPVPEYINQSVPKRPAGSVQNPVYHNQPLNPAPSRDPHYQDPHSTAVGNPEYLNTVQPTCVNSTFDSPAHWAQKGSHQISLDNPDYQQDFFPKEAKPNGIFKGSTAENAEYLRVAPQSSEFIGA

inhibition [2] [%] | inhibition [3] [%] | inhibition [4] [%] | inhibition [5] [%] | inhibition [6] [%] | inhibition [7] [%] | inhibition [8] [%] | Compound | IC50 [1] [µM] | IC50 (BEAS-2B) [µM] | IC50 (NCI-H460) [µM] | IC50 (A549) [µM] | IC50 (NCI-H1975) [µM] | IC50 (HCC827) [µM]
32 | 42 | 25 | 31 | 97 | 13 | 7.8 | C=CC(=O)Nc1cccc(Oc2nc(Nc3ccc(N4CCN(C)CC4)c(OC)c3)nc3[nH]ccc23)c1 | 12.5 | 9.89 | 33.6 | 20.6 | 22.4 | 0.26
4.5 | 2.4 | 11 | 9.7 | 7.3 | 2.2 | 3.6 | C=CC(=O)Nc1cccc(Oc2nc(Nc3ccc(N4CCN(C)CC4)c(N)c3)nc3c2ccn3COC(=O)C(C)(C)C)c1 | 9.58 | 9.54 | 7.65 | 10.8 | 42 | 0.33
86 | 92 | 44 | 41 | 98 | 4.8 | 9.2 | C=CC(=O)Nc1cccc(Oc2nc(Nc3ccc(N4CCN(C)CC4)c(Cl)c3)nc3[nH]ccc23)c1 | 8.73 | 3.8 | 4.86 | 1.68 | 1.67 | 0.12
 |  |  |  |  |  |  | C=CC(=O)Nc1cccc(Oc2nc(Nc3ccc(N4CCN(C)CC4)cc3)nc3[nH]ccc23)c1 | 28.1 | 23.8 | 36 | 9.92 | 22 | 0.24
4.7 | 3.5 | 0.41 | 13 | 7.9 | 6.3 | 8.4 | C=CC(=O)Nc1cccc(Oc2nc(Nc3ccc(N4CCN(C)CC4)c([N+](=O)[O-])c3)nc3c2ccn3COC(=O)C(C)(C)C)c1 | 3.61 | 5.73 | 4.68 | 3.1 | 4.12 | 0.44
